From patent publication EP0005658A1, “Peptide derivatives analogue to encephalines, process for their preparation and their therapeutical application” (Laboratoire le Brun S.A. Société dite:, priority 1978, dated 1979) come the findings set out here.

Several values for one entry are separate records, joined by “and”; a condition that tells them apart may be missing. Equal values may be shown once.

For one data set, the target named is Vas déferens de souris (Mus musculus, UniProt P32300). Nature of the data set: Transmural electrical stimulation of mouse vas deferens (Hughes and Kosterlitz). It is filed as cell-based. To be noted: contact time 3 minutes, read-out: % d'inhibition. Here is the method:
On a utilisé une technique de stimulation transmu- rale du canal différent de la souris, adaptée à celle décrite par HUCHES et KOSTERLITZ (J.HUGUES, H.W.KOSTERLITZ and Frances M.LESLIE, "Effect of morphine ou adrenergic transmission in the mouse vas deferens. Assessment of ago- nist and antagonist potencies of narcotic analgesics".-Br J. Pharmac. 53 371-381 (1975).
• - Les essais ont été réalisés dans une cuve de 7 ml irriguée par une solution de KREBS. • - Les stimulations électriques, supramaximales (6 par minute) étaient ajustées à chaque essai. • - Les concentrations des différents produits étudiés sont exprimées en nM par litre. • - Pour chaque concentration le temps de contact a été de 3 minutes. Dans les cas où le maximum d'inhibition a été atteint en un temps plus court, le fait a été signalé. Chaque essai était séparé du suivant par une période de 10 à 20 minutes. • - Les résultats sont exprimés en pourcentage d'inhibition de la concentration consécutive à la stimulation électrique du canal déférent. On a ensuite calculé les doses actives 50 par la méthode de Parker & Wand (J.Pharm. Exper. Therap.96-99 (1949).

A short description of data set [1]: Acute toxicity in the mouse. Also noted: species or system souris. To be noted: in vivo, IV route, read-out: D.L. 5a. Here is the method: Les dérivés de formule générale I bénéficient d'une excellente tolérance et d'une faible toxicité qui a été plus particulièrement étudiée sur lés dérivés N° 12 et 13, qui ont fait l'objet d'une épreuve de toxicité aiguë chez la souris.
Les D.L. 5a obtenues sont respectivement de : • 725 ± 25 mg/kg par voie IV pour le dérivé.n° 12. • et 892 ± 31 mg/kg "" " pour le dérivé n° 13.

Data set [2] addresses sites de liaison à haute et moyenne affinité de la leucine-enképhaline 3-R de membranes striatales de souris. Nature of the data set: Competition with tritiated Leu-enkephalin binding on mouse striatal membranes. To be noted: displacement of a fixed concentration of Leucine-Enképhaline 3-H. Here is the method:
On a déterminé le pouvoir compétiteur des dérivés de l'invention vis-à-vis des sites de liaison à haute et moyenne affinité de la leucine-enképhaline 3-R de membranes striatales de souris.
Les conditions de préparation des membranes et d'incubation ont été les mêmes que celles qui sont décrites dans Audigier et Coll. (C. Acad. Sciences plus Euro- pean J. of Pharmacol.).
Des concentrations croissantes des divers composés synthétisés ont été opposées à une concentration fixe de Leucine-Enképhaline 3-H et les déplacements observés ont permis dans chaque cas de déterminer une constante d'inhi- bition (Ki).

The target in the next data set is iléon de cobaye (Cavia porcellus, UniProt A0ACM8Q262). Description: cell-based. It is filed as cell-based. The conditions noted are these: for Activité Morphine =100: activity relative to morphine (= 100) in concomitant tests. The procedure: I. Action analgésique par rapport à la morphine comme substance de référence qui a été contrôlée • a) Sur organe isolé. - iléon de cobaye
Sequence of iléon de cobaye (A0ACM8Q262 1-400): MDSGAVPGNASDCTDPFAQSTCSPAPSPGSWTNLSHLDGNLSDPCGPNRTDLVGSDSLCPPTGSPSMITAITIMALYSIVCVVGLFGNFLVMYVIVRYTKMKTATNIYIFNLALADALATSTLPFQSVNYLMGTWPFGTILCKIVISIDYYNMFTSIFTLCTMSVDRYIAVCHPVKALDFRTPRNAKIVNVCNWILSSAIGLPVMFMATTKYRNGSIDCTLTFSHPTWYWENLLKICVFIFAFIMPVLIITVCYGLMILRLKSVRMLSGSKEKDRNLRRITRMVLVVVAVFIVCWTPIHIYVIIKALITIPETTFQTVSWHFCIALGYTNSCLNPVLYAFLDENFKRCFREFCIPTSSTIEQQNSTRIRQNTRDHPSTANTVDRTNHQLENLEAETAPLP
On a utilisé la technique de stimulation transmu- rale de l'iléon de cobaye de PATON (W.D.M. PATON, "The rés- ponse of the guinea-pig ileum to electrical stimulation by coaxial electrodes" - J. Physiol. (London), 127, 40P-41P (1955) et PATON (W.D.M.) - Brit.J. Pharmacol. 11).
• - Les essais ont été réalisés dans une cuve de 35 ml irriguée par une solution de KREBS. • - Les stimulations électriques, supramaximales (6 par minute - […]) étaient ajustées à chaque essai. Courant rectangulaire - durée-0,5 milliseconde. • - Les concentrations des différents produits étudiés, ainsi que celles de la morphine qui a servi de corps de référence, sont exprimées en nanomoles (nM) par litre. • - Pour chaque concentration, le temps de contact a été de 3 minutes. Chaque essai était séparé du suivant par une période de 10 à 20 minutes. • - Les résultats sont exprimés en pourcentage d'inhibition de la concentration consécutive à la stimulation électri--que de l'iléon. On a ensuite calculé les doses actives 50 par la méthode de Parker et Waud (J. of pharmacology, 1971, 177, n°4) qui ont été comparées à celle de la morphine dans des essais concomitants.

The test system of data set [3] is rat. Nature of the data set: Castor oil diarrhoea test in the rat. It is filed as in vivo.
Data set [4] relates to rat. Nature of the data set: Catalepsy in the rat (psychotropic action). It is filed as in vivo. From the text: Elle a été évaluée par la recherche d'une catalepsie chez le rat.
Ces essais ont été réalisés avec des rats femelles indexes d'organisées pathogènes spécifiques pesant de 200 à 220 g.
L'effet cataleptique est mesuré en suspendant le rat par ses pattes antérieures au rebord de la cage d'expérience : un rat cataleptique reste dans cette position alors qu'un animal normal l'abandonne aussitôt, voire ne la prend pas du tout.
La catalepsie est appréciée de la façon suivante: • 0 : pas de catalepsie • 1 : catalepsie liminaire • 2 : catalepsie d'intensité moyenne • […] : catalepsie très prononcée
Les animaux sont traités par voie sous cutanée.
Les expériences ont été effectuées à l'aveugle, l'observateur ignorant les traitements.

The test system of the next data set is souris. Description: Hot plate test in the mouse (analgesia). To be noted: 10 mg/kg compared with morphine 1 mg/kg, taking molarities into account. (In general: In hot-plate and tail-flick tests a longer latency is read as antinociception.)
The mark [5] stands for this setting: 2 heures after product, oral 3 mg/kg, 10 rats.
Where [6] appears, read: 2 heures after product, oral 10 mg/kg, 10 rats (Codéine base: 20 rats).
[7] abbreviates: 2 heures after product, oral 30 mg/kg, 10 rats.
Setting [8] is: 4 heures after product, oral 3 mg/kg, 10 rats.
Where [9] appears, read: 4 heures after product, oral 10 mg/kg, 10 rats (Codéine base: 20 rats).
Setting [10] is: 4 heures after product, oral 30 mg/kg, 10 rats.

Sequence of Vas déferens de souris (P32300 whole entry): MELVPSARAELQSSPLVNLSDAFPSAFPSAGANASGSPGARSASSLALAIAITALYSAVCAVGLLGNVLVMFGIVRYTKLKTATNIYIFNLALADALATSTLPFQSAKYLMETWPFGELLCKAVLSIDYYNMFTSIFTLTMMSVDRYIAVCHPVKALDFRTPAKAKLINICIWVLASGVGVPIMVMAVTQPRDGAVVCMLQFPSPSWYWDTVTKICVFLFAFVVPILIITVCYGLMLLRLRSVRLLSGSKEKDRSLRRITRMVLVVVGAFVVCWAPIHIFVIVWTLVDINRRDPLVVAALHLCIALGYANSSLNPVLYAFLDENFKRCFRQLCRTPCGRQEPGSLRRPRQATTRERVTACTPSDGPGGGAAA

What is called inhibition is the relative decrease from the control value, in per cent. What is called Ki is a measure of affinity in units of concentration, obtained from inhibition or displacement. Turning to `CSCC[C@H](NC(=O)[C@H](Cc1ccccc1)NC(=O)CNC(=O)[C@@H](C)NC(=O)[C@@H](N)Cc1ccc(O)cc1)C(=O)NCCCCCNS(=O)(=O)c1cccc2c(N(C)C)cccc12` [Dérivé n° 13], the inhibition at 0.6 µM is 38% at Vas déferens de souris (600 nM/l) and 68.1% on iléon de cobaye (600 nM/l, contact time 3 minutes, read-out: % d'inhibition). Moreover, at Vas déferens de souris (750 nM/l), the inhibition at 0.75 µM was 55%. In addition, the inhibition at 0.9 µM at Vas déferens de souris (900 nM/l) was 83.3%. Moreover, the inhibition at 1.5 µM on Vas déferens de souris (1 500 nM/l) was 90.5%. Besides, the LD50 in data set [1] stood at 892 ± 31 mg/kg. In addition, in data set [2], the Ki is 21 ± 5 nM. In addition, the inhibition at 0.15 µM at iléon de cobaye (150 nM/l, contact time 3 minutes, read-out: % d'inhibition) stood at 34.2%. For the same compound, the inhibition at 0.3 µM on iléon de cobaye (300 nM/l, contact time 3 minutes, read-out: % d'inhibition) came out at 46.4%. Besides, the “Activité Morphine =100” value at iléon de cobaye is 12,7.
In turn, `CC(C)C[C@H](NC(=O)[C@H](Cc1ccccc1)NC(=O)CNC(=O)CNC(=O)[C@@H](N)Cc1ccc(O)cc1)C(=O)O` [Leu-enképhaline, reference compound] gave a Ki in data set [2] of 5 ± 1.8 nM.
Take `COc1ccc2c3c1O[C@H]1[C@@H](O)C=C[C@H]4[C@@H](C2)N(C)CC[C@@]341` [Codéine base, Codéine]: the “Nombre d'animaux non diarrhéiques” value in the data set with rat [3] (setting [5]) is listed as 7; in the data set with rat [3] (setting [6]), 19; in the data set with rat [3] (setting [7]) it was 10; in the data set on rat [3] (setting [8]), 4; in the data set with rat [3] (setting [9]), 14; in the data set on rat [3] (setting [10]), 8.
As to `O=C(CCCN1CCC(O)(c2ccc(Cl)cc2)CC1)c1ccc(F)cc1` [Halopéridol], the ED50 in the data set on rat [4] (Rattus norvegicus, sc, catalepsy, subcutaneous route, female rats, read-out: D.A. 50/ sous cut.) is 0.2 mg/kg.
As to `CSCC[C@H](NC(=O)[C@H](Cc1ccccc1)NC(=O)CNC(=O)[C@@H](C)NC(=O)[C@@H](N)Cc1ccc(O)cc1)C(=O)NCCNS(=O)(=O)c1cccc2c(N(C)C)cccc12` [Dérivé n° 12, Tyr-D Ala- Gly-Phe-Met-NH-(CH2)2-NH-SO2 -X, dans lequel X est un groupe 5 diméthylamino-α-naphtyle], the inhibition at 0.0012 µM on Vas déferens de souris (1,2 nM/l) was 41.8%. Also, the inhibition at 0.0018 µM at Vas déferens de souris (1,8 nM/l) amounted to 50%. For the same compound, on Vas déferens de souris (2,4 nM/l), the inhibition at 0.0024 µM worked out at 63%. The LD50 in data set [1] amounted to 725 ± 25 mg/kg. For the same compound, the “D.A. 50/ sous cut.” value with rat [4] (catalepsy, subcutaneous route, female rats) is reported as 5 mg/kg. The compound also displayed a Ki in data set [2] of 5 ± 2 nM. For the same compound, the “coefficient d'activité” value in the data set on souris is listed as around 35%. Besides, the “Nombre d'animaux non diarrhéiques” value in the data set on rat [3] (setting [5]) was found to be 6; with rat [3] (setting [6]), 10; in the data set on rat [3] (setting [7]) it was 10; in the data set on rat [3] (setting [8]) it was 3; in the data set on rat [3] (setting [9]), 6; in the data set on rat [3] (setting [10]), 10. Moreover, in the data set on rat [3] (statement in words, 30 mg/kg, four hours), the “action antidiarrhéique” value was “protège tous les animaux”. The inhibition at 0.012 µM on iléon de cobaye (12 nM/l, contact time 3 minutes, read-out: % d'inhibition) was 28.3%. In addition, on iléon de cobaye (18 nM/l, contact time 3 minutes, read-out: % d'inhibition), the inhibition at 0.018 µM came to 35.5%. Further, the inhibition at 0.024 µM on iléon de cobaye (24 nM/l, contact time 3 minutes, read-out: % d'inhibition) was determined as 51.3%. For the same compound, the inhibition at 0.06 µM at iléon de cobaye (60 nM/l, contact time 3 minutes, read-out: % d'inhibition) worked out at 76.3%. Besides, the “Activité Morphine =100” value at iléon de cobaye is 147.
With `CN1CC[C@]23c4c5ccc(O)c4O[C@H]2[C@@H](O)C=C[C@H]3[C@H]1C5` [Morphine], in the data set with rat [4] (rat, in vivo, sc), the “D.A. 50/ sous cut.” value is given as 2,5 mg/kg. Besides, the “Nombre d'animaux non diarrhéiques” value with rat [3] (rat, in vivo, po, 3 mg/kg) is 9 and 5; with rat [3] (rat, in vivo, po, 10 mg/kg), 10 and 8.
